Molecules are shown by their SMILES.

Data set [1] has as its system Female Yucatan Micro-Swine. As to the kind of experiment: Conscious pig model (IUP, MAP, HR). It counts as in vivo. As to the method: In general, IUP is the intraurethral pressure and is measured as the 2 minute mean from the first peak of the urethral response (FIG. 1). MAP is the mean arterial blood pressure and is measured as the average blood pressure during the 2 minute section where IUP is measured. The durability is the slope of the IUP response in mmHg/min and is calculated immediately after the 2 minute IUP response for 5 minutes (2-7 minutes post the first peak) for the top 3 doses.
Conscious Pig Materials and Methods
Sling Training: Female Yucatan Micro-Swine were trained to stay in a sling for up to 4 hours. Swine were exposed to progressively longer sling durations per IACUC sling-training guideline.
Surgical Instrumentation: Female Yucatan Micro-swine were instrumented with a telemetry device with both pressure and ECG monitoring capabilities (Data Sciences International St Paul Minn.). In addition, a Bardport low profile titanium VAP was placed subcutaneously for blood sampling. All devices were implanted by the surgical veterinarian at Roche Palo Alto. Briefly, the telemetry probe body was placed subcutaneously in the cervical region. The intra-arterial pressure catheter was advanced via the superficial cervical artery into the subclavian artery for blood pressure measurement. The ECG leads were placed intra-muscularly: one in the intercostal muscle between the T8-T10 regions on the left side, and the other in the intercostal muscles between the T1-T3 regions on the right side. The VAP was placed subcutaneously in the neck region, with the catheter advanced into the jugular vein. […]
Experiment: After the swine was fully awake and stable (usually approximately 1 hour post wake up), baseline blood pressure, IUP, and heart rate parameters were determined. […]
Data Generating and Analysis Systems: Cardiovascular readings were generated by the TL11M3-D70-PCP (Data Sciences International, St. Paul, Minn.) telemetry device and associated hardware. […] IUP was monitored by a solid state catheter connected to a TA6000 Polygraph (Data Sciences International, St. Paul, Minn.). […]

The target in a further data set is T1, alpha-1A adrenoceptors (Homo sapiens, UniProt P35348).
T1 sequence (P35348 1-466): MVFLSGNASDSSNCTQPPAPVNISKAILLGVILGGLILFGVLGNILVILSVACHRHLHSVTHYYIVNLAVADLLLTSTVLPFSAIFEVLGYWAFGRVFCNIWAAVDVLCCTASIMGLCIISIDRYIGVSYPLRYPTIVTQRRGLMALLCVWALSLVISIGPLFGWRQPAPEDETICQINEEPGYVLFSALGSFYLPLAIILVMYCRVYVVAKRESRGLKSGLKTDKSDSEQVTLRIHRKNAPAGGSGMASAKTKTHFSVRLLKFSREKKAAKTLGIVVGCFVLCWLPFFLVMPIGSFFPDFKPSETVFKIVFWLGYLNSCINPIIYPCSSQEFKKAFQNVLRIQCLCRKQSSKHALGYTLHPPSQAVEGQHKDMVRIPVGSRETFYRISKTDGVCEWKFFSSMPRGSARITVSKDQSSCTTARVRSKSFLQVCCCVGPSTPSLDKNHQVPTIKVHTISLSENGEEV
The data set is described as follows: alpha-1A adrenoceptor partial agonist activity (intrinsic activity and pEC50). It counts as biochemical.

Take `CS(=O)(=O)Nc1cc(F)c(CC2=NCCN2)c(Br)c1Br` [Formula I, N-[2,3-Dibromo-4-(4,5-dihydro-1H-imidazol-2-ylmethyl)-5-fluoro-phenyl]-methanesulfonamide]: in data set [1], the “maximum arterial blood pressure effect” value is “low maximum arterial blood pressure effect” and the “selectivity for enhancement of intraurethral pressure (IUP) over blood pressure (MAP)” value is reported as “selectivity for enhancement of intraurethral pressure (IUP) over blood pressure (MAP)”. The “durability of IUP response over time” value in data set [1] (iv infusion, compared to analogue compound (FIG. 1b vs FIG. 1c)) was “unexpectedly increased durability of IUP response over time”. In addition, on alpha-1A adrenoceptors (ideally between 0.35 to 0.60), the “intrinsic activity, or efficacy, as a partial agonist” value is reported as 0.38. Moreover, at alpha-1A adrenoceptors (read-out: affinity, or pEC50 value (converted)), the EC50 was 0.2 µM.

The record behind these values is patent US7799816B2, “Imidazolinylmethyl aryl sulfonamide” (Roche Palo Alto LLC, priority 2008, dated 2010).
